Assay results as given in patent US20140163012A1, “PYRIDO-/AZEPINO-BENZOFURAN AND PYRIDO-/AZEPINO-BENZOTHIOPHENE MCH-1 ANTAGONISTS, METHODS OF MAKING, AND USE THEREOF” (Albany Molecular Research, Inc., priority 2012, published 2014).
Counter-ions that a name gives are not always drawn.

Target: human MCH-1 receptor (Homo sapiens, UniProt Q99705)
Assay: Binding assay for human melanin-concentrating hormone (MCH-1) receptor, radioligand displacement on CHO-K1 cell membranes
Method: Nonspecific binding was determined in the presence of 50 μM 1-(5-(4-cyanophenyl)bicyclo[3.1.0]hexan-2-yl)-3-(4-fluoro-3-(trifluoromethyl)phenyl)-1-(3-(4-methylpiperazin-1-yl)propyl)urea. […] The filters were counted for radioactivity in a liquid scintillation counter (Tri-Carb 2100TR, Packard) using a scintillation cocktail (Ultima Gold MV, Perkin Elmer).
The results are expressed as a percent inhibition of the control radioligand specific binding. The IC50 value (concentration causing a half-maximal inhibition of control specific binding) and Hill coefficient (nH) were determined by non-linear regression analysis of the competition curve using Hill equation curve fitting.

human MCH-1 receptor, sequence (Q99705 whole entry): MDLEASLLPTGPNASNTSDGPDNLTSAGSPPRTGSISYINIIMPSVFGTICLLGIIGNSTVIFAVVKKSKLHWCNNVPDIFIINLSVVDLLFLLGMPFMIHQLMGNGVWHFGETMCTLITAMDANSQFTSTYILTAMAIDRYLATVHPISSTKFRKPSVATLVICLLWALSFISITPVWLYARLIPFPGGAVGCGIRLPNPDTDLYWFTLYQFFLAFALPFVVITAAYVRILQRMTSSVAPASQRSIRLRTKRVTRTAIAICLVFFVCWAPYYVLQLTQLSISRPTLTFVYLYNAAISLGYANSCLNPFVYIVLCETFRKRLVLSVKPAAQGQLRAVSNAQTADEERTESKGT

SMILES: O=c1cc(OCc2ccccc2)ccn1-c1ccc2c3c(oc2c1)CNCC3 [Example 2, 4-(Benzyloxy)-1-(1,2,3,4-tetrahydrobenzofuro[2,3-c]pyridin-7-yl)pyridin-2(1H)-one hydrochloride]
- Ki: 23 nM

SMILES: O=c1cc(OCc2ccc(F)cn2)ccn1-c1ccc2c3c(oc2c1)CNCC3 [Example 3, 4-((5-Fluoropyridin-2-yl)methoxy)-1-(1,2,3,4-tetrahydrobenzofuro[2,3-c]pyridin-7-yl)pyridin-2(1H)-one hydrochloride]
- Ki: 59 nM

SMILES: O=c1cc(-c2ccc(C(F)(F)F)nc2)ccn1-c1ccc2c3c(oc2c1)CNCC3 [Example 4, 1′-(1,2,3,4-Tetrahydrobenzofuro[2,3-c]pyridin-7-yl)-6-(trifluoromethyl)-[3,4′-bipyridin]-2′(1′H)-one hydrochloride]
- Ki: 1310 nM

SMILES: O=c1cc(-c2ccc(C(F)(F)F)nc2)ccn1-c1ccc2c3c(oc2c1)CCNC3 [Example 5, 1′-(1,2,3,4-Tetrahydrobenzofuro[3,2-c]pyridin-7-yl)-6-(trifluoromethyl)-[3,4′-bipyridin]-2′(1′H)-one hydrochloride]
- Ki: 56 nM

SMILES: O=c1cc(OCc2ccccc2)ccn1-c1ccc2c3c(oc2c1)CCNC3 [Example 6, 4-(Benzyloxy)-1-(1,2,3,4-tetrahydrobenzofuro[3,2-c]pyridin-7-yl)pyridin-2(1H)-one hydrochloride]
- Ki: 3.3 nM

SMILES: O=c1cc(OCc2ccc(F)cn2)ccn1-c1ccc2c3c(oc2c1)CCNC3 [Example 7, 4-((5-Fluoropyridin-2-yl)methoxy)-1-(1,2,3,4-tetrahydrobenzofuro[3,2-c]pyridin-7-yl)pyridin-2(1H)-one hydrochloride]
- Ki: 7.3 nM

SMILES: C[C@@H]1Cc2oc3cc(-n4ccc(OCc5ccccn5)cc4=O)ccc3c2CN1 [Example 8, (R)-1-(3-Methyl-1,2,3,4-tetrahydrobenzofuro[3,2-c]pyridin-7-yl)-4-(pyridin-2-ylmethoxy)pyridin-2(1H)-one hydrochloride]
- Ki: 57 nM

SMILES: C[C@@H]1Cc2oc3cc(-n4ccc(OCc5ccc(F)cn5)cc4=O)ccc3c2CN1 [Example 9, (R)-4-((5-Fluoropyridin-2-yl)methoxy)-1-(3-methyl-1,2,3,4-tetrahydrobenzofuro[3,2-c]pyridin-7-yl)pyridin-2(1H)-one]
- Ki: 10 nM

SMILES: O=c1cc(OCc2ccc(Cl)cn2)ccn1-c1ccc2c3c(oc2c1)CCNC3 [Example 10, 4-((5-Chloropyridin-2-yl)methoxy)-1-(1,2,3,4-tetrahydrobenzofuro[3,2-c]pyridin-7-yl)pyridin-2(1H)-one hydrochloride]
- Ki: 3.3 nM

SMILES: O=c1cc(-c2ccc(C(F)(F)F)cn2)ccn1-c1ccc2c3c(oc2c1)CCNC3 [Example 11, 1′-(1,2,3,4-Tetrahydrobenzofuro[3,2-c]pyridin-7-yl)-5-(trifluoromethyl)-[2,4′-bipyridin]-2′(1′H)-one hydrochloride]
- Ki: 166 nM

SMILES: O=c1cc(-c2ccc(C(F)(F)F)cn2)ccn1-c1ccc2c3c(sc2c1)CNCC3 [Example 12, 1-(1,2,3,4-Tetrahydrobenzothieno[2,3-c]pyridin-7-yl)-4-(5-(trifluoromethyl)pyridin-2-yl)pyridin-2(1H)-one hydrochloride]
- Ki: 93 nM

SMILES: O=c1cc(OCc2ccc(Cl)cn2)ccn1-c1ccc2c3c(sc2c1)CNCC3 [Example 13, 4-((5-Chloropyridin-2-yl)methoxy)-1-(1,2,3,4-tetrahydrobenzothieno[2,3-c]pyridin-7-yl)pyridin-2(1H)-one hydrochloride]
- Ki: 3.1 nM

SMILES: O=c1cc(OCc2ccc(F)cn2)ccn1-c1ccc2c3c(sc2c1)CNCC3 [Example 14, 4-((5-Fluoropyridin-2-yl)methoxy)-1-(1,2,3,4-tetrahydrobenzothieno[2,3-c]pyridin-7-yl)pyridin-2(1H)-one hydrochloride]
- Ki: 6.2 nM

SMILES: O=c1cc(OCc2ccccc2)ccn1-c1ccc2c3c(sc2c1)CNCC3 [Example 15, 4-(Benzyloxy)-1-(1,2,3,4-tetrahydrobenzothieno[2,3-c]pyridin-7-yl)pyridin-2(1H)-one]
- Ki: 4 nM

SMILES: O=c1cc(-c2ccc(C(F)(F)F)cn2)ccn1-c1ccc2c3c(sc2c1)CNCCC3 [Example 17, 1-(2,3,4,5-Tetrahydro-1H-benzothieno[2,3-c]azepin-8-yl)-4-(5-(trifluoromethyl)pyridin-2-yl)pyridin-2(1H)-one]
- Ki: 927 nM

SMILES: O=c1cc(OCc2ccc(F)cn2)ccn1-c1ccc2c3c(sc2c1)CNCCC3 [Example 18, 4-((5-Fluoropyridin-2-yl)methoxy)-1-(2,3,4,5-tetrahydro-1H-benzothieno[2,3-c]azepin-8-yl)pyridin-2(1H)-one]
- Ki: 12 nM

SMILES: O=c1cc(OCc2ccccc2)ccn1-c1ccc2c3c(sc2c1)CNCCC3 [Example 19, 4-(Benzyloxy)-1-(2,3,4,5-tetrahydro-1H-benzothieno[2,3-c]azepin-8-yl)pyridin-2(1H)-one]
- Ki: 8.2 nM

SMILES: O=c1cc(OCc2ccc(Cl)cn2)ccn1-c1ccc2c3c(sc2c1)CCNCC3 [Example 20, 4-((5-Chloropyridin-2-yl)methoxy)-1-(2,3,4,5-tetrahydro-1H-benzothieno[2,3-d]azepin-8-yl)pyridin-2(1H)-one]
- Ki: 3.8 nM

SMILES: O=c1cc(OCc2ccc(F)cn2)ccn1-c1ccc2c3c(sc2c1)CCNCC3 [Example 21, 4-((5-Fluoropyridin-2-yl)methoxy)-1-(2,3,4,5-tetrahydro-1H-benzothieno[2,3-d]azepin-8-yl)pyridin-2(1H)-one]
- Ki: 3.8 nM

SMILES: O=c1cc(OCc2ccccc2)ccn1-c1ccc2c3c(sc2c1)CCNCC3 [Example 22, 4-(Benzyloxy)-1-(2,3,4,5-tetrahydro-1H-benzothieno[2,3-d]azepin-8-yl)pyridin-2(1H)-one]
- Ki: 4.4 nM

SMILES: CN1CCc2oc3cc(-n4ccc(OCc5ccc(F)cn5)cc4=O)ccc3c2C1 [Example 23, 4-((5-Fluoropyridin-2-yl)methoxy)-1-(2-methyl-1,2,3,4-tetrahydrobenzofuro[3,2-c]pyridin-7-yl)pyridin-2(1H)-one hydrochloride]
- Ki: 11 nM

SMILES: CCN1CCc2oc3cc(-n4ccc(OCc5ccc(F)cn5)cc4=O)ccc3c2C1 [Example 24, 1-(2-Ethyl-1,2,3,4-tetrahydrobenzofuro[3,2-c]pyridin-7-yl)-4-((5-fluoropyridin-2-yl)methoxy)pyridin-2(1H)-one]
- Ki: 13 nM

SMILES: CC(=O)N1CCc2oc3cc(-n4ccc(OCc5ccccc5)cc4=O)ccc3c2C1 [Example 25, 1-(2-Acetyl-1,2,3,4-tetrahydrobenzofuro[3,2-c]pyridin-7-yl)-4-(benzyloxy)pyridin-2(1H)-one]
- Ki: 23 nM

SMILES: CCN1CCc2oc3cc(-n4ccc(OCc5ccccc5)cc4=O)ccc3c2C1 [Example 26, 4-(Benzyloxy)-1-(2-ethyl-1,2,3,4-tetrahydrobenzofuro[3,2-c]pyridin-7-yl)pyridin-2(1H)-one]
- Ki: 4.9 nM

SMILES: CN1CCc2oc3cc(-n4ccc(OCc5ccccc5)cc4=O)ccc3c2C1 [Example 27, 4-(Benzyloxy)-1-(2-methyl-1,2,3,4-tetrahydrobenzofuro[3,2-c]pyridin-7-yl)pyridin-2(1H)-one hydrochloride]
- Ki: 8.1 nM

SMILES: CC(C)N1CCc2oc3cc(-n4ccc(OCc5ccc(F)cn5)cc4=O)ccc3c2C1 [Example 28, 4-((5-Fluoropyridin-2-yl)methoxy)-1-(2-isopropyl-1,2,3,4-tetrahydrobenzofuro[3,2-c]pyridin-7-yl)pyridin-2(1H-one hydrochloride]
- Ki: 9.8 nM

SMILES: CC(=O)N1CCc2oc3cc(-n4ccc(OCc5ccc(F)cn5)cc4=O)ccc3c2C1 [Example 29, 1-(2-Acetyl-1,2,3,4-tetrahydrobenzofuro[3,2-c]pyridin-7-yl)-4-((5-fluoropyridin-2-yl)methoxy)pyridin-2(1H)-one]
- Ki: 46 nM

SMILES: CC(C)N1CCc2oc3cc(-n4ccc(OCc5ccccc5)cc4=O)ccc3c2C1 [Example 30, 4-(Benzyloxy)-1-(2-isopropyl-1,2,3,4-tetrahydrobenzofuro[3,2-c]pyridin-7-yl)pyridin-2(1H)-one hydrochloride]
- Ki: 9 nM

SMILES: O=c1cc(OCc2cccc(C(F)(F)F)n2)ccn1-c1ccc2c3c(oc2c1)CCNC3 [Example 31, 1-(1,2,3,4-Tetrahydrobenzofuro[3,2-c]pyridin-7-yl)-4-((6-(trifluoromethyl)pyridin-2-yl)methoxy)pyridin-2(1H)-one hydrochloride]
- Ki: 23 nM

SMILES: C[C@H]1Cc2oc3cc(-n4ccc(OCc5ccccc5)cc4=O)ccc3c2CN1 [Example 32, (S)-4-(Benzyloxy)-1-(3-methyl-1,2,3,4-tetrahydrobenzofuro[3,2-c]pyridin-7-yl)pyridin-2(1H)-one hydrochloride]
- Ki: 7.4 nM

SMILES: C[C@@H]1NCCc2oc3cc(-n4ccc(OCc5ccccc5)cc4=O)ccc3c21 [Example 33, (S)-4-(Benzyloxy)-1-(1-methyl-1,2,3,4-tetrahydrobenzofuro[3,2-c]pyridin-7-yl)pyridin-2(1H)-one hydrochloride]
- Ki: 6 nM

SMILES: C[C@H]1Cc2oc3cc(-n4ccc(OCc5ccccn5)cc4=O)ccc3c2CN1 [Example 34, (S)-1-(3-Methyl-1,2,3,4-tetrahydrobenzofuro[3,2-c]pyridin-7-yl)-4-(pyridin-2-ylmethoxy)pyridin-2(1H)-one hydrochloride]
- Ki: 38 nM

SMILES: C[C@@H]1NCCc2oc3cc(-n4ccc(OCc5ccccn5)cc4=O)ccc3c21 [Example 35, (S)-1-(1-Methyl-1,2,3,4-tetrahydrobenzofuro[3,2-c]pyridin-7-yl)-4-(pyridin-2-ylmethoxy)pyridin-2(1H)-one hydrochloride]
- Ki: 57 nM

SMILES: O=c1cc(-c2ccc(C(F)(F)F)cn2)ccn1-c1ccc2c3c(oc2c1)CCCNC3 [Example 36, 1-(2,3,4,5-Tetrahydro-1H-benzofuro[3,2-c]azepin-8-yl)-4-(5-(trifluoromethyl)pyridin-2-yl)pyridin-2(1H)-one hydrochloride]
- Ki: 39 nM

SMILES: O=c1cc(OCc2ccc(F)cn2)ccn1-c1ccc2c3c(oc2c1)CCCNC3 [Example 37, 4-((5-Fluoropyridin-2-yl)methoxy)-1-(2,3,4,5-tetrahydro-1H-benzofuro[3,2-c]azepin-8-yl)pyridin-2(1H)-one hydrochloride]
- Ki: 4.5 nM

SMILES: O=c1cc(OCc2ccc(Cl)cn2)ccn1-c1ccc2c3c(oc2c1)CCCNC3 [Example 38, 4-((5-Chloropyridin-2-yl)methoxy)-1-(2,3,4,5-tetrahydro-1H-benzofuro[3,2-c]azepin-8-yl)pyridin-2(1H)-one hydrochloride]
- Ki: 3 nM
